Assay results taken from patent US12590063B2, “Phenol derivative” (Sumitomo Pharma Co., Ltd., priority 2020, dated 2026).
Structures can show the parent of a compound that is named as a salt. Marks after values point to notes of the source that are not given here.

Key:
[1] = Evaluation test for metabolic stability to S9; format: in vitro ADME; settings: liver S9 fraction, 37° C., 15 minutes, final compound concentration 10 nM
Experimental: Test Example 4: Evaluation Test for Metabolic Stability to S9
The compounds were added to a reaction solution in which the liver S9 fraction was diluted with phosphate buffer, and incubation was initiated at 37° C. (final compound concentration 10 nM, final volume 300 μL). After incubation for 15 minutes, the reaction was stopped by adding the reaction solution to acetonitrile, and centrifugation was carried out. After filtering the supernatant through a filter, the amount of compounds was determined using LC/MS/MS. From the amount of compounds obtained, the residual rate 15 minutes after the initiation of the reaction was calculated relative to the amount of compounds before the initiation of the reaction (0 minutes).

[2] = system: normal rats; assay: Evaluation of effect of increasing swallowing in normal rats; format: in vivo, rat; settings: anesthetized normal rats; for number of swallowings, Average: pharyngeal infusion 12 ml/h for 10 seconds, counted for 30 seconds
Experimental: Test Example 5: Evaluation of Effect of Increasing Swallowing in Normal Rats
This test is for evaluating the effect of increasing swallowing function of drugs. It has been reported that induction of the swallowing reflex in normal rats using NaCl-containing water suppresses the number of swallows, and the increase in swallowing function was evaluated using a NaCl-containing solvent. After the induction of anesthesia in Crl:CD(SD) male rats (7 to 8 rats per group, 8 to 9 weeks old, body weight 280 to 310 g: at the time of arrival), the animals were sheared under the jaw with clippers and held in a supine position on a heat pad kept at 37° C. to prevent limb movement. A rat sonde was inserted into the animals' mouths, and the tip of the sonde was retained in the pharynx. Under this condition, the test substance administration solution was administered at 12 ml/h for 10 seconds using an infusion pump, and the swallowing movements were measured for 30 seconds from the initiation of administration. Note that the vehicle used was saline solution containing 1% ethanol and 0.1% Tween 80.

[3] = target: T1, Human TRPV1 (Homo sapiens, UniProt Q8NER1); assay: Evaluation of agonistic properties using human TRPV1 transiently expressing cells; format: cell-based; settings: for EC50: HEK293 cells transiently expressing human TRPV1 and apoaequorin, luminescence signal Rlu (Max-Min), read-out: TRPV1 EC50; for TRPV-1-agonistic activity (in words): evaluation test for TRPV-1-agonistic properties, summary of Tables 3 and 4
T1 construct: the TRPV1 gene (GenBank NP_542435.2) had been inserted; expressed in transfected cells; host or cells: HEK293 cells (cat #CCL-82.2, ATCC), transient transfection with pcDNA3.1
T1 sequence (Q8NER1 whole entry): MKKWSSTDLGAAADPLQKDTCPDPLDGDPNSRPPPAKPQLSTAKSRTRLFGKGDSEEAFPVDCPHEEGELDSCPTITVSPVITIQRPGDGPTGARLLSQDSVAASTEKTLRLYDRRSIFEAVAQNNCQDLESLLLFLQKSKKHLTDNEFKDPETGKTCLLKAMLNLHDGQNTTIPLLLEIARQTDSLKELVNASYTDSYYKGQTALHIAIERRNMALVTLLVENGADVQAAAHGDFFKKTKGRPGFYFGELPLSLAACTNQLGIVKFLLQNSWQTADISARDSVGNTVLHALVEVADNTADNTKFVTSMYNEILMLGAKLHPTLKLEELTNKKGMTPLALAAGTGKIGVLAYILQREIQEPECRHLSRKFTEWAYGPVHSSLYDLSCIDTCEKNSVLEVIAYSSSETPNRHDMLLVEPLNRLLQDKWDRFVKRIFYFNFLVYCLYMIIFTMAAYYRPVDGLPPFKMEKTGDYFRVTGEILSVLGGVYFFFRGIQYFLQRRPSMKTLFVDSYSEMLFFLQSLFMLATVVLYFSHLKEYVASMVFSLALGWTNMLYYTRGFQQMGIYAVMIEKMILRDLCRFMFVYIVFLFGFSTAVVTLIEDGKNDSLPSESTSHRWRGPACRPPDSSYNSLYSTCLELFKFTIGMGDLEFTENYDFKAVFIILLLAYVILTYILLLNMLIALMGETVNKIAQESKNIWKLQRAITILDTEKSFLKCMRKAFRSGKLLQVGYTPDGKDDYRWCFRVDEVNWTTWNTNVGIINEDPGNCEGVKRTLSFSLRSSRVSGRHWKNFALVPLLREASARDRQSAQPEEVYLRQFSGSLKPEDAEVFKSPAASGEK
Description: Test Example 1: Evaluation of Agonistic Properties Using Human TRPV1 Transiently Expressing Cells
(1) Generation of Human TRPV1 Transiently Expressing Cells
Human TRPV1 transiently expressing cells were generated and subjected to culture. Specifically, HEK293 cells (cat #CCL-82.2, ATCC) were used as host cells. Human TRPV1 and apoaequorin were transiently expressed by introducing the mammalian cell expression pcDNA3.1 vector (cat #v790-20, Invitrogen) into which the TRPV1 gene (GenBank NP_542435.2) had been inserted.
The Dulbecco's Modified Eagle's Medium (DMEM) medium (cat #11550-043, Thermo Fisher Scientific) containing 10% inactivated fetal bovine serum (cat #10270-106, Thermo Fisher Scientific) was used as the medium, and the culture was carried out in tissue culture dishes (cat #3020-100, Iwaki). During the culture, cells were collected every 2 to 3 days by treating with PBS containing 10% 2.5 g/1-trypsin/[…] solution, phenol red (cat #32777-44, Nacalai Tesque), and passage culture was carried out.
Three days after the passage, cells were collected with 10% trypsin-PBS treatment at a state of about 80% confluency, suspended in a DMEM medium containing 10% fetal bovine serum to 4000 cells/35 μl/well, and seeded into 384-well plates (cat #353962, FALCON).
The day after seeding, Viviren (cat #E6492, Promega) was added (15 μl/well) to a final concentration of 4.5 μM/HBSS (cat #14065-056, Thermo Fisher Scientific)/90 mM HEPES (cat #17514-15, Nacalai Tesque)/0.1% BSA (cat #01281-84, Nacalai Tesque), and after centrifugation, the samples were allowed to stand at room temperature for 2 hours under light-shielded conditions.
(2) Preparation of Test Compounds
For the test compounds, dimethyl sulfoxide solutions were produced at a concentration 1000 times the final concentration, and from these solutions, solutions at concentration 10 times the final concentration were prepared with Hanks/20 mmol/L HEPES/0.10% BSA (cat #01281-84, Nacalai Tesque).
(3) Evaluation of TRPV1-Agonistic Properties
FDSS7000 (Hamamatsu Photonics K.K.) was used for detection of TRPV1 agonist-stimulated luminescence signals. The test compounds were added to plates to which the cells and luminescent substrates had been added. The luminescence signals (center wavelength: 465 nm) after addition of the test compounds were measured, and the Rlu (Max−Min) was calculated.

[4] = system: normal rats; assay: Test for eye stimulatory properties in normal rats; format: in vivo, rat; settings: for Number of eye-wiping (Average ± Standard deviation): 10 μL into the right eye, observed for 1 minute
Experimental: Test Example 7: Evaluation with Respect to Test for Eye Stimulatory Properties in Normal Rats
It has been reported that TRPV1 agonists have stimulatory properties and that administration of TRPV1 agonist solutions to the eye can induce wiping behavior. The stimulatory properties of the compounds were investigated using normal rats. Crl:CD(SD) male rats (5 rats per group, 8 weeks old, body weight 271 to 320 g) were held unanesthetized and 10 μL was dropped into the right eye using a micropipette.

[5] = system: Crl:CD(SD) rats; assay: Evaluation of taste aversion by drinking water; format: in vivo, rat; settings: two-bottle choice, overnight
Experimental: Test Example 3: Evaluation of Taste Aversion by Drinking Water
This test is for evaluating the taste aversion of drugs. The test was carried out by, while keeping Crl:CD(SD) rats (8 rats per group, 8 weeks old at the time of arrival) in home cages, adding the test substance solutions to water bottles. Two water bottles per cage were prepared, each filled with vehicle (sterile water containing 0.05% ethanol) and the test substance solution, and kept overnight, and the amount of water consumed during that period was measured. The proportion of water consumed with the test substance was calculated from the total amount of water consumed from the two water bottles, and the evaluation of taste aversion was carried out. It can be evaluated that the larger the proportion of water consumed with the test substance, the smaller the taste aversion and the smaller the stimulatory properties caused by the test substance.

[6] = system: normal rats; assay: Desensitization of effect of increasing swallowing in normal rats; format: in vivo, rat; settings: for number of swallows, Average, First time: 1st of five administrations about 5 minutes apart; for number of swallows, Average, Second time: 2nd of five administrations about 5 minutes apart; for number of swallows, Average, Third time: 3rd of five administrations about 5 minutes apart; for number of swallows, Average, Fourth time: 4th of five administrations about 5 minutes apart; for number of swallows, Average, Fifth time: 5th of five administrations about 5 minutes apart; for number of swallows at repeated administrations compared to the 1st administration (Dunnett's test): five administrations about 5 minutes apart
Description: Test Example 6: Evaluation with Respect to Desensitization of Effect of Increasing Swallowing in Normal Rats
TRPV1 agonists are known to induce TRPV1 desensitization when given at high doses or repeatedly. Using the same method as in Test Example 5, the effect of drugs on normal swallowing function in rats to induce desensitization was investigated. After the induction of anesthesia in Crl:CD(SD) male rats (7 to 8 rats per group, 8 to 9 weeks old, body weight 280 to 310 g: at the time of arrival), the animals were sheared under the jaw with clippers and held in a supine position on a heat pad kept at 37° C. to prevent limb movement. A sonde was inserted into the animals' mouths, and the tip of the sonde was retained in the pharynx. Under this condition, the test substance administration solution was administered at 12 ml/h for 10 seconds using an infusion pump, and the swallowing movements were measured for 30 seconds from the initiation of administration. Thereafter, the same test was performed about 5 minutes later, and the evaluation was repeated for a total of five times. Note that the vehicle used was saline solution containing 1% ethanol and 0.1% Tween 80.

Row | SMILES | Residual rate (%) [1] | number of swallowings, Average [2] | EC50 [3] | number of wiping behaviors versus control (Dunnett's test) ([4]; rat, in vivo) | proportion of water consumed with the test substance (% Vehicle) ([5]; 1 μM in drinking water) | proportion of water consumed with the test substance (% Vehicle) ([5]; 3 μM in drinking water) | proportion of water consumed with the test substance (% Vehicle) ([5]; 10 μM in drinking water) | TRPV-1-agonistic activity (in words) [3] | number of swallowings compared to the solvent administered group (Dunnett's test) [2] | number of swallows, Average, First time ([6]; 10 μM) | number of swallows, Average, Second time ([6]; 10 μM) | number of swallows, Average, Third time ([6]; 10 μM) | number of swallows, Average, Fourth time ([6]; 10 μM) | number of swallows, Average, Fifth time ([6]; 10 μM) | number of swallows at repeated administrations compared to the 1st administration (Dunnett's test) [6] | also measured
1 | COc1cc(CC(=O)Nc2cccc([C@H]3CC[C@@H](OC(C)=O)CC3)c2)ccc1O [Example 12, cis-4-{3-[2-(4-hydroxy-3-methoxyphenyl)acetamido]phenyl}cyclohexyl acetate] | 2% | 19.4** | 6.3 nM | no significant difference | 103 % Vehicle | 31 % Vehicle | 22 % Vehicle | – | – | – | – | – | – | – | – | –
2 | COc1cc(CC(=O)Nc2ccnc(-c3cccc(OC(=O)C(C)C)c3)c2)ccc1O [Example 26, 3-{4-[2-(4-hydroxy-3-methoxyphenyl)acetamido]pyridin-2-yl}phenyl 2-methylpropanoate] | <1% | – | 2.3 nM | – | 113 % Vehicle | 86 % Vehicle | 55 % Vehicle | stronger TRPV-1-agonistic activity | – | – | – | – | – | – | – | –
3 | COc1cc(CC(=O)Nc2ccnc(-c3cccc(OC(=O)C(C)C)c3)c2)ccc1O [Example 49, 3-{4-[2-(4-Hydroxy-3-methoxyphenyl)acetamido]pyridin-2-yl}phenyl 2-methylpropanoate hydrochloride] | – | 15.0* | – | no significant difference | – | – | – | – | significantly increased | 12.3 | 12.4 | 12.9 | 11.3 | 14.4 | no significant difference | number of swallows, Average, First time ([6]; 30 μM): 17.1; number of swallows, Average, Second time ([6]; 30 μM): 13.9; number of swallows, Average, Third time ([6]; 30 μM): 14.1; number of swallows, Average, Fourth time ([6]; 30 μM): 12.4; number of swallows, Average, Fifth time ([6]; 30 μM): 12.7
4 | COc1cc(CNC(=O)CCCC/C=C/C(C)C)ccc1O [Capsaicin, capsaicin, reference compound] | – | 14.1* | – | – | 13 % Vehicle | 9 % Vehicle | – | – | significantly increased | 18.2 | 13.2 | 14 | 9.7** | 9.5** | significantly reduced at the 4th and 5th administrations | Number of eye-wiping (Average ± Standard deviation) ([4]; 1 μM): 2.0 ± 2.3; Number of eye-wiping (Average ± Standard deviation) ([4]; 3 μM): 0.2 ± 0.4; Number of eye-wiping (Average ± Standard deviation) ([4]; 10 μM): 6.4 ± 6.3; Number of eye-wiping (Average ± Standard deviation) ([4]; 30 μM): 6.4 ± 4.4; Number of eye-wiping (Average ± Standard deviation) ([4]; 100 μM): 21.4 ± 9.7; number of wiping behaviors versus control (Dunnett's test) ([4]; eye drop in unanesthetized rats): significantly increased the number of wiping behaviors at concentrations of 30 μM and more; proportion of water consumed with the test substance (% Vehicle) ([5]; 0.3 μM in drinking water): 71 % Vehicle
5 | COc1cc(CC(=O)Nc2cccc([C@H]3CC[C@@H](OC(=O)C4CCCCC4)CC3)c2)ccc1O [Example 2, cis-4-{3-[2-(4-Hydroxy-3-methoxyphenyl)acetamido]phenyl}cyclohexyl cyclohexanecarboxylate] | 1% | 17.8*** | 4.5 nM | no significant difference | 94 % Vehicle | 80 % Vehicle | 71 % Vehicle | stronger TRPV-1-agonistic activity | significantly increased | – | – | – | – | – | – | –
6 | COc1cc(CC(=O)Nc2cccc(-c3cccc(OC(=O)C(C)C)c3)n2)ccc1O [Example 1, 3-{6-[2-(4-Hydroxy-3-methoxyphenyl)acetamido]pyridin-2-yl}phenyl 2-methylpropanoate] | <1% | 7.6 | 2.6 nM | no significant difference | 90 % Vehicle | 66 % Vehicle | 35 % Vehicle | stronger TRPV-1-agonistic activity | – | – | – | – | – | – | – | –
